Test results from PMC11636765, “Importance of Considering Fed-State Gastrointestinal Physiology in Predicting the Reabsorption of Enterohepatic Circulation of Drugs” (Pharmaceutical Research, 2024).
Values after ≈ are worked out from the molar mass of the structure shown. Read-outs that look alike come from different tables or passages of the source.

How the values were obtained:
[1] = cited from earlier work
[2] = cited from earlier work; remark: listed apart in the source
[3] = cited from earlier work; remark: listed apart in the source
[4] = Estimation of effective permeability (Peff) in the human small intestine from Caco-2 Papp
From the text: The Papp for each compound was cited from previous reports [39, 40] or calculated using an equation [41] based on the reported partition coefficient [25, 42].

[5] = In vitro dissolution test of tablets in biorelevant media (USP apparatus II paddle); format: physicochemical; settings: for Dissolution in FaSSIF-V2: tablet, 500 mL, paddle 50 rpm, up to 60 min
Experimental: (§1) Fasted State Simulated Gastric Fluid (FaSSGF) and Fasted State Simulated Intestinal Fluid version 2 (FaSSIF-V2) were used for dissolution tests and solubility tests. Fed State Simulated Intestinal Fluid version 2 (FeSSIF-V2) was used for solubility tests. These media contain sodium taurocholate as the bile acid. Their composition and preparation method have been previously reported and were prepared accordingly, except that FaSSGF was used without pepsin.
For in vitro dissolution tests, a USP apparatus II paddle dissolution tester (NTR-6400AC, Toyama Sangyo Co., Ltd., Osaka, Japan) was used. The media volume of FaSSGF and FaSSIF-V2 was 300 mL and 500 mL, respectively, and temperature in the dissolution vessel was maintained at 37℃ ± 0.5℃. […] Paddle rotation speed during the dissolution test was maintained at 50 rpm for up to 60 min. The samples were filtered through PVDF 0.45 µm filters (Whatman, GD/X, 13 mm, Cytiva, Chicago, IL, USA) immediately after withdrawal, and filtrates were recovered after the first 2 mL was discarded. […] All dissolution tests were conducted in triplicate.
When the tablets […] during the infinity spin in the dissolution test, separate solubility measurements were performed, as described in the next paragraph.
TSKgel ODS-100Z 5 µm (4.6 mm × 15 cm, Tosoh Corporation, Tokyo, Japan) was used as analytical column for both drugs. Column temperature during analysis was set to 40℃. A mixture of perchlorate (Na) buffer pH 2.5 and acetonitrile (50:50, v/v) was used as mobile phase. […] Flow rate and injection volume were 1.2 mL/min and 10 μL, respectively. […]

[6] = parameters: method as in earlier work; settings: cited from earlier work
[7] = Solubility test of drug substances in biorelevant media and free fraction calculation; format: physicochemical; settings: for Free fraction: fraction of drug not entrapped in micelles in FeSSIF-V2, Eq. (8), from FaSSIF-V2/FeSSIF-V2 solubility; for Solubilization by bile micelles: in vitro solubility in biorelevant media
Experimental: as §1
The excess amount of ezetimibe powder was added to 10 mL FaSSIF-V2 and FeSSIF-V2. Test tubes containing the drug substances in the biorelevant media were vigorously shaken at 37℃ ± 0.5℃ for 5 h. An approximately 5 mL sample was withdrawn using a plastic syringe, then filtered through a PVDF 0.45 µm filter. The filtrates (after discarding the first ca. 2 mL) were diluted with 50:50 v/v acetonitrile for analysis to prevent precipitation, except for that of ezetimibe tested in FeSSIF-V2. All solubility tests were conducted in triplicate.
TSKgel ODS-100Z 5 µm (4.6 mm × 15 cm, Tosoh Corporation, Tokyo, Japan) was used as analytical column for both drugs. Column temperature during analysis was set to 40℃. A mixture of perchlorate (Na) buffer pH 2.5 and acetonitrile (50:50, v/v) was used as mobile phase. […] Flow rate and injection volume were 1.2 mL/min and 10 μL, respectively.
Sodium taurocholate and lecithin concentration in FaSSIF-V2 are 3 mM and 0.2 mM, respectively, and those in FeSSIF-V2 are 10 mM and 2 mM, respectively. […] The formulation was considered able to exist in the small intestine for 4 h after administration. Initial intestinal fluid volume in both prandial states was set to 100 mL [31].

[8] = FaSSIF-V2, drug substance powder, 37℃, shaken 5 h, pH 6.5, read-out: Solubility in FaSSIF-V2
[9] = FeSSIF-V2, 37 °C, fessif, thermodynamic from solid, drug substance powder, 37℃, shaken 5 h, pH 5.8, read-out: Solubility in FeSSIF-V2

Papp [4] | solubility at 120 min ([5]; FaSSIF-V2, for PK simulation, Zetia: infinity point of tablet dissolution test, Mobic: adopted from drug substance solubility test) | Dissolution in FaSSIF-V2 [5] | solubility at 5 h [7, 8] | solubility at 5 h [7, 9] | Free fraction [7] | solubility at 5 h ([7]; blank FaSSIF-V2 (without surfactant), drug substance, medium without surfactant, read-out: Solubility in blank FaSSIF-V2) | solubility at 5 h ([7]; blank FeSSIF-V2 (without surfactant), drug substance, medium without surfactant, read-out: Solubility in blank FeSSIF-V2) | Free fraction ([7]; listed as meloxicam) | Structure (SMILES) | Effect of concomitant food on extent of absorption [1] | Log P [2] | pKa [3] | Solubility in the aqueous phase [6] | Solubilization by bile micelles [7] | Log P ([2]; calculated value based on apparent partition coefficient Log Papp) | Plasma concentration of glucuronide relative to parent drug in terms of AUC ([1]; humans, Zetia tablet)
121 ×10⁻⁶ cm/s | 4.93 µg/mL (≈ 12 µM) | around 20% | 3.79 ± 0.133 µg/mL (≈ 9.26 µM) | 22.3 ± 0.203 µg/mL (≈ 54.5 µM) | 0.169 |  |  |  | O=C1[C@H](CC[C@H](O)c2ccc(F)cc2)[C@@H](c2ccc(O)cc2)N1c1ccc(F)cc1 [Ezetimibe, ezetimibe] | not affected | 4.5 | 9.7 | virtually insoluble | clearly shown to be solubilized by the mixed micelles |  | 
 |  | about 80% | 172 ± 12.3 µg/mL (≈ 489 µM) | 42.7 ± 1.53 µg/mL (≈ 122 µM) | Regard as 1 | 164 µg/mL (≈ 467 µM) | 32.5 µg/mL (≈ 92.5 µM) | 1 | Cc1cnc(NC(=O)C2=C(O)c3ccccc3S(=O)(=O)N2C)s1 [Meloxicam, meloxicam] |  |  |  |  | insignificant | 3.32 | 
 |  |  |  |  |  |  |  |  | O=C(O)[C@H]1O[C@@H](Oc2ccc([C@@H]3[C@@H](CC[C@H](O)c4ccc(F)cc4)C(=O)N3c3ccc(F)cc3)cc2)[C@H](O)[C@@H](O)[C@@H]1O [glucuronide] |  |  |  |  |  |  | about seven-fold
